US20200369594A1, “COMPOUNDS COMPRISING SHORT-CHAIN FATTY ACID MOIETIES AND COMPOSITIONS AND METHODS THEREOF” (priority 2018, published 2020)
“And” between values parts separate entries of the source, which are not always exact repeats. Equal values may be shown once.

Key:
[1] = test system: dextran sulfate sodium (DSS)-induced colitis in mice; assay: mouse dextran sulfate sodium (DSS) model of acute ulcerative colitis; type: in vivo, mice (Swiss Webster); settings: for restoration of colon length (in words): DSS-induced colitis in mice, oral administration; for Colon Content Score (0-3): key: 0=normal, no blood observed; 1=semi-solid stool, may be slightly blood tinged; 2=semi-solid to fluid stool with definite evidence of blood; 3=bloody fluid or no content, (include animals with no observable distal content in this category)
[2] = viscosity (flow property) and taste assessment; type: physicochemical
Description: Properties of provided compounds and compositions can be readily tested, including using a number of methods widely known and practiced in the art, in accordance with the present disclosure. For example, viscosity and/or taste of provided compounds can be readily tested. In some embodiments, viscosity was assessed by testing whether a provided compound could readily flow out of a vial or be swirled. In some embodiments, viscosity was assessed by testing whether a provided compound could be administered by direct drinking by a subject. In some embodiments, viscosity can be measured quantitatively or qualitatively by methods and instruments as known and practiced in the art. In some embodiments, taste was assessed by testing whether a provided compound could be administered by direct drinking by a subject.

[3] = CsA (75 mg/kg PO QD) vs. Compound I-1 (2 g/kg PO BID)
[4] = Naïve vs. Compound I-1 (2 g/kg PO BID)
[5] = Vehicle vs. Compound I-1 (2 g/kg PO BID)
[6] = individual animals, necropsy day 7, 3% DSS, Compound I-1 2 g/kg PO, BID (d0-6)

SMILES: CCCC(=O)OCC(COC(=O)CCC(=O)OCC(COC(=O)CCC)OC(=O)CCC)OC(=O)CCC (stereo not drawn) [Compound I-1]
- Mean Diff., Tukey's multiple comparisons test (colon length, FIG. 2) [1, 3]: 0.65
- Significant? Tukey's multiple comparisons test (colon length, FIG. 2) [1, 3]: No
- restoration of colon length (in words) [1]: significantly restore colon length
- restoration of colon length (in words) ([1]; listed as compound I-1): effectively restored colon length
- Mean Diff., Tukey's multiple comparisons test (colon length, FIG. 2) [1, 4]: 1.85
- Significant? Tukey's multiple comparisons test (colon length, FIG. 2) [1, 4]: Yes
- Mean Diff., Tukey's multiple comparisons test (colon length, FIG. 2) [1, 5]: −1.05
- Significant? Tukey's multiple comparisons test (colon length, FIG. 2) [1, 5]: Yes
- Colon Content Score (0-3) [1, 6]: 1 (8×) and 2 (2×)
- Colon Length [1, 6]: 8.00 cm (3×) and 8.25 cm and 6.25 cm (2×) and 8.50 cm and 7.00 cm (2×) and 6.75 cm
- Colon Weight:Length [1, 6]: 0.046 g/cm and 0.039 g/cm and 0.043 g/cm and 0.063 g/cm and 0.042 g/cm and 0.054 g/cm and 0.034 g/cm and 0.047 g/cm and 0.056 g/cm and 0.048 g/cm
- Colon Wet Wt [1, 6]: 0.369 g and 0.320 g and 0.343 g and 0.391 g and 0.332 g (2×) and 0.339 g and 0.291 g and 0.390 g and 0.324 g
- flow properties and taste for formulation [2]: surprisingly good flow properties and taste
- viscosity compared with glycerol [2]: lower viscosity than glycerol

SMILES: CCCC(=O)OCC(COC(=O)CCC)OC(=O)CCC(=O)OC(COC(=O)CCC)COC(=O)CCC [Compound I-2]
- flow properties and taste for formulation [2]: surprisingly good flow properties and taste
